Assay results reported in ChEMBL document CHEMBL1201862, “PubChem BioAssay data set” (2004).
The source made the active and inactive calls.

Columns and labels:
Bcl-2-related protein A1 [1] = target: T1, Bcl-2-related protein A1 (Mus musculus, UniProt Q07440); experiment: small-molecule antagonists of Bfl-1/BH3 interaction – biochemical, TR-FRET, mouse Bfl-1, confirmation (AID 621);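 further: TR-FRET binding of GST-Bfl-1 to FITC-labelled Bid peptide via terbium antibody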
T1 sequence (Q07440 whole entry): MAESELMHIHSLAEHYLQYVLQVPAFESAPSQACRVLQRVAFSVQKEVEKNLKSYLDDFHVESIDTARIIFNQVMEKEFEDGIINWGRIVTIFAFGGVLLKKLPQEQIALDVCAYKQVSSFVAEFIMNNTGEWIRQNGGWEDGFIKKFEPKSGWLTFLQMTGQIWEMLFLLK

[2] = target: Glyceraldehyde-3-phosphate dehydrogenase (Homo sapiens, UniProt P04406)
Chain of Glyceraldehyde-3-phosphate dehydrogenase (P04406 whole entry): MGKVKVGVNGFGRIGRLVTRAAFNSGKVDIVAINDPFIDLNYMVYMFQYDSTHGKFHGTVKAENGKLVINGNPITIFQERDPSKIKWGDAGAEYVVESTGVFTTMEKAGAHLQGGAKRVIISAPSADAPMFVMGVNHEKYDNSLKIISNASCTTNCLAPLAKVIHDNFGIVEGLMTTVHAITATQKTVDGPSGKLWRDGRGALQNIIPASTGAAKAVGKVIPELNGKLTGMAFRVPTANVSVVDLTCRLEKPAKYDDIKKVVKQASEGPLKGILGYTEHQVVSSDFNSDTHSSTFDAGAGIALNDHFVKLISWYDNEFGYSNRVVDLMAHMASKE

Bcl-2-related protein A1 [3] = target: T1, Bcl-2-related protein A1; experiment: Bfl-1 binding inhibitors, SAR follow-up, biochemical, fluorescence polarization (AID 1070)
NADPH oxidase 1 = NADPH oxidase 1 (Homo sapiens, UniProt Q9Y5S8); format: functional, cell-based;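 further: Cell-based assay with luminescence read-out, IC50 derived from inhibitor dose-response curves; intracellular ROS from endogenous NOX1 in intact HT29 colon cancer cells; potency of inhibitors that lower the ROS luminescence signal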
Chain of NADPH oxidase 1 (Q9Y5S8 whole entry): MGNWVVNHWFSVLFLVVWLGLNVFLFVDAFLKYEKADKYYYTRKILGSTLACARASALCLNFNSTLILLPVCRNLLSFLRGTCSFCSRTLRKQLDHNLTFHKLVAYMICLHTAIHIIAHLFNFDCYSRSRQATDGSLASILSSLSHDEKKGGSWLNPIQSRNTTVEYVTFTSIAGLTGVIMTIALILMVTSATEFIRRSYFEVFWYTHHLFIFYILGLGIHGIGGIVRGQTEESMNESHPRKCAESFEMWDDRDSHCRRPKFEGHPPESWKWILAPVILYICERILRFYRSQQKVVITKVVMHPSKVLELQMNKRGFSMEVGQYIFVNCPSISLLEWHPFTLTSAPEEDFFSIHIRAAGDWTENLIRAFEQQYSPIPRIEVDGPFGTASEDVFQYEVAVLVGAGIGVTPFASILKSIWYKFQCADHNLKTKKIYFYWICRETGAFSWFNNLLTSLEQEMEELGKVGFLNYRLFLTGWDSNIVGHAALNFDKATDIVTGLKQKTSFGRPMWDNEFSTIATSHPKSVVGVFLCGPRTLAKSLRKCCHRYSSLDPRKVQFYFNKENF

[4] = target: T2, Heat shock factor protein 1 (Mus musculus, UniProt P38532); experiment: decrease of HSF1-responsive luciferase luminescence – cell-based, NIH3T3, dose retest, confirmation (AID 2382); format: functional;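 further: NIH3T3 fibroblasts with HSF1-driven luciferase reporter stressed by proteasome inhibitor MG132; luminescence from HSF1-driven luciferase expression after 8 hours of MG132 stress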
T2 sequence (P38532 whole entry): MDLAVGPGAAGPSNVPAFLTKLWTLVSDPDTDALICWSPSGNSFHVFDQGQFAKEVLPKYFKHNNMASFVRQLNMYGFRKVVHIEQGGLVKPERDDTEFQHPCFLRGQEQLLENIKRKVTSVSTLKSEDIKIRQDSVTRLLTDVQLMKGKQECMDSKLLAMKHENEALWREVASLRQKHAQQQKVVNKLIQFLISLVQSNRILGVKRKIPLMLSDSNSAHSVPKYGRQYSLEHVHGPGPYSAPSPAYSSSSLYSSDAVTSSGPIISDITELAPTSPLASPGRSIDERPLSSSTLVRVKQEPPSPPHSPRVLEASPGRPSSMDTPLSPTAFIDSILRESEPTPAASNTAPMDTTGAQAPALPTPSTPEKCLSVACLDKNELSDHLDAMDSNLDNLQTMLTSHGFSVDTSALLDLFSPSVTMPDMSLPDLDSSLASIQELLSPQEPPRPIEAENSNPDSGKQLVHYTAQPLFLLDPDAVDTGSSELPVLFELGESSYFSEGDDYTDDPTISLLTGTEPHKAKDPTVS

[5] = target: T3, Neuropeptide Y receptor type 1 (Homo sapiens, UniProt P25929); format: functional;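 further: HEK293 cells with a CNG channel challenged with NPY then isoproterenol; potency as antagonist that reverses NPY suppression of cAMP signal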
T3 sequence (P25929 whole entry): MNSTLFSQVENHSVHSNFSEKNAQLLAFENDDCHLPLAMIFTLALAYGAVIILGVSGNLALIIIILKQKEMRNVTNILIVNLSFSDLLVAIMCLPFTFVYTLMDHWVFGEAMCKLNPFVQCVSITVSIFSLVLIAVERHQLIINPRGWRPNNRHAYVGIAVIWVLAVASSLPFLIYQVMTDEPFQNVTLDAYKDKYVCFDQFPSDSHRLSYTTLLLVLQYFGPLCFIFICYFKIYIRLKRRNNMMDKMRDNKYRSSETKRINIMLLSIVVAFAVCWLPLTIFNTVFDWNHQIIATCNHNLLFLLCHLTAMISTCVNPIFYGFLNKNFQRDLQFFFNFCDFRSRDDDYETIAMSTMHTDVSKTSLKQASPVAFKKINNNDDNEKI

[6] = antiviral protection against BTV-induced cell death – arbovirus, BSR cells, confirmation (AID 1250); format: functional;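 further: protection from viral cytopathic effect measured as cell viability by ATP luminescence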
[7] = NIH-3T3 fibroblast cytotoxicity, dose response, cytotoxicity control, cell-based, fluorescence, Alamar Blue, secondary assay (AID 2327); format: functional;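 further: NIH-3T3 mouse fibroblasts cultured with fluconazole at 8 µg/mL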
[8] = fluconazole-exposed Candida albicans growth modulators – fluorescence, retest, confirmation (AID 2467); format: functional, cell-based
INS1 = experiment: INS-1E survival protection against cytokine death – cell-based, luminescence, retest, dose response (AID 449756); format: functional; settings: Rattus norvegicus;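 further: cell death triggered by IL-1 beta plus TNF-alpha plus IFN-gamma mixture; protective hits raise ATP signal compared with cytokine alone wells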
[9] = HEK-293T cell viability reduction – luminescence, B-cell screen hits, cytotoxicity control for BCR NF-kB inhibitor project, dose response (AID 489021); format: functional, cell-based;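 further: HEK-293T cells carrying an NF-kB luciferase reporter; cells exposed to compound for about 14 hours before viability readout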
[10] = target: T3, Neuropeptide Y receptor type 1; experiment: IC50 of human NPY-Y1 blockers – cell-based, dose response (AID 1277); format: functional
[11] = target: T4, Neuropeptide Y receptor type 2 (Homo sapiens, UniProt P49146); experiment: IC50 for human NPY-Y2 blockade – cell-based, counter-screen for NPY-Y1 antagonist project, dose response (AID 1278); format: functional
T4 sequence (P49146 whole entry): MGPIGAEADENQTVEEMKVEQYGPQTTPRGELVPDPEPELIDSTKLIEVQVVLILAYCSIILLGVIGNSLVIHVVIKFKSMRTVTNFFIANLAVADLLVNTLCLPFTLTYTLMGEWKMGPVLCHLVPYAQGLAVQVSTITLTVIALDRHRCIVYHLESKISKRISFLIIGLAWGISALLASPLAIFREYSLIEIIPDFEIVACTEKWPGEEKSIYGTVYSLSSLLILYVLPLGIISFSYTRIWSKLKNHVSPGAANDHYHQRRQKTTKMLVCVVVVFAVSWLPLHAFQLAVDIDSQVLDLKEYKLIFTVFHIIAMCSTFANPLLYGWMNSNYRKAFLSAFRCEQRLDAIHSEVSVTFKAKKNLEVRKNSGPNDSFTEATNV

[12] = target: Luciferin 4-monooxygenase (Photinus pyralis, UniProt P08659); experiment: Counter Screen for Luciferase-based Assay Positives. [Related pubchem assays: 620, 618, 411 ]
Chain of Luciferin 4-monooxygenase (P08659 whole entry): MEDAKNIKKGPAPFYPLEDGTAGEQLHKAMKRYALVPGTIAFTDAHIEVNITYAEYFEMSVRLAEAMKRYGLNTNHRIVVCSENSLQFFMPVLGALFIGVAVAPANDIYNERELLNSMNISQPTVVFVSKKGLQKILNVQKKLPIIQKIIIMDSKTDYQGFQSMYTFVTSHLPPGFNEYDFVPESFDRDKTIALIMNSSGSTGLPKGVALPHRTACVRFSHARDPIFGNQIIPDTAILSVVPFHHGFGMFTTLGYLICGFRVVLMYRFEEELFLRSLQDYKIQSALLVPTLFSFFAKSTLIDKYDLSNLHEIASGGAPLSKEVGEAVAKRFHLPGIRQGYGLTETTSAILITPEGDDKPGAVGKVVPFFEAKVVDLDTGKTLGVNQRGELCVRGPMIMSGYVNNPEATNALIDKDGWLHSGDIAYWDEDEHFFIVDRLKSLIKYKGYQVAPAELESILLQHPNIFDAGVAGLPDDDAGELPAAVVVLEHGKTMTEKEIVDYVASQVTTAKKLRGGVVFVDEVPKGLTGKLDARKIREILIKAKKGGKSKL

HT-1080 = experiment: HT1080 cell viability loss – fluorescence readout (AID 620); format: functional, cell-based; settings: Homo sapiens
[13] = target: Neurotensin receptor type 1 (Homo sapiens, UniProt P30989); format: functional;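 further: Image-based confirmatory dose-response assay measuring agonist activity at NTR1; NTR1-expressing U2OS osteosarcoma cells imaged for beta-arrestin GFP spot formation; agonist potency where compounds increase beta-arrestin recruitment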
Chain of Neurotensin receptor type 1 (P30989 whole entry): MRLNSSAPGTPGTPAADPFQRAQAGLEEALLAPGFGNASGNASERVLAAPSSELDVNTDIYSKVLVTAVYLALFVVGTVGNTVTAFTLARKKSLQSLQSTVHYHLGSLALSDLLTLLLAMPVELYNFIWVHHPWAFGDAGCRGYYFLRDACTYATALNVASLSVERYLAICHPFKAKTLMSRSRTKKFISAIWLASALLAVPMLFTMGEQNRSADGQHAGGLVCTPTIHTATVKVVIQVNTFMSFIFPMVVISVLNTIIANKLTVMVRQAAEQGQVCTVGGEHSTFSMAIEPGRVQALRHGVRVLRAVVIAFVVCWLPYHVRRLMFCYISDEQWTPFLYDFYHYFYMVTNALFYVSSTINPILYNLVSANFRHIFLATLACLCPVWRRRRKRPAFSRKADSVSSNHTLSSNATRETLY

[14] = target: T5, Microphthalmia-associated transcription factor (Homo sapiens, UniProt O75030); experiment: reducers of TRPM1 reporter luminescence, concentration series – cell-based, SK-MEL-5, cherry-picked, set 3, MITF inhibitor project, dose response (AID 493073); format: functional;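 further: SK-MEL-5 melanoma cells with luciferase driven by the MITF target TRPM1 promoter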
T5 sequence (O75030 whole entry): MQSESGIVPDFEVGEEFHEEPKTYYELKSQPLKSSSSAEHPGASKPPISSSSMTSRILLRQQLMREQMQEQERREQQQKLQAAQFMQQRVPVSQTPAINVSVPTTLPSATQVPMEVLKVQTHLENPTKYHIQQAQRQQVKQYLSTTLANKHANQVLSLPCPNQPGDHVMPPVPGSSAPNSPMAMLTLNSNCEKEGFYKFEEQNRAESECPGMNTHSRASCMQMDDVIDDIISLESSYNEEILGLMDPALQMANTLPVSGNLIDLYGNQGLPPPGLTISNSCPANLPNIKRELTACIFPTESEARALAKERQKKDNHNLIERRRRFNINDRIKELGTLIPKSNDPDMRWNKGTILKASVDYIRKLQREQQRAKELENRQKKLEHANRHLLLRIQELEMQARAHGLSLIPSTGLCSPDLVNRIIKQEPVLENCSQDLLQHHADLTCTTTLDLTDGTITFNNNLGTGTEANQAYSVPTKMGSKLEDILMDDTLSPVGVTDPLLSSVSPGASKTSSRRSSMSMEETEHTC

[15] = target: T6, Neuropeptides B/W receptor type 1 (Homo sapiens, UniProt P48145); experiment: Fluorescence-based dose response cell-based high throughput screening assay to identify antagonists of the G-protein coupled receptor 7 (GPR7). [Related pubchem assays: 1952 (Screening assay (GPR7 antagonists).), 1880 (Summary AID.)]; format: functional
T6 sequence (P48145 whole entry): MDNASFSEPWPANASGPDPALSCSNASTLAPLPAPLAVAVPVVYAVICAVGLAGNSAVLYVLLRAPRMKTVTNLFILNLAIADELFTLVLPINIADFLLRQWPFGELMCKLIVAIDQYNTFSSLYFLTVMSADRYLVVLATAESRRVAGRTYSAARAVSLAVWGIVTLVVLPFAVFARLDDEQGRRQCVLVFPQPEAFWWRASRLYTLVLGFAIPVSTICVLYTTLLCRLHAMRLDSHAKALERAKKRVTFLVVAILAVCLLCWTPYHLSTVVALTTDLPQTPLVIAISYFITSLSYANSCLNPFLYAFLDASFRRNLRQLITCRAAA

[16] = target: Melanin-concentrating hormone receptor 1 (Homo sapiens, UniProt Q99705); experiment: Fluorescence-based counterscreen for antagonists of the G-protein coupled receptor 7 (GPR7): cell-based high throughput dose response assay to identify antagonists of the melanin-concentrating hormone receptor 1 (MCHR1).; format: functional
Chain of Melanin-concentrating hormone receptor 1 (Q99705 whole entry): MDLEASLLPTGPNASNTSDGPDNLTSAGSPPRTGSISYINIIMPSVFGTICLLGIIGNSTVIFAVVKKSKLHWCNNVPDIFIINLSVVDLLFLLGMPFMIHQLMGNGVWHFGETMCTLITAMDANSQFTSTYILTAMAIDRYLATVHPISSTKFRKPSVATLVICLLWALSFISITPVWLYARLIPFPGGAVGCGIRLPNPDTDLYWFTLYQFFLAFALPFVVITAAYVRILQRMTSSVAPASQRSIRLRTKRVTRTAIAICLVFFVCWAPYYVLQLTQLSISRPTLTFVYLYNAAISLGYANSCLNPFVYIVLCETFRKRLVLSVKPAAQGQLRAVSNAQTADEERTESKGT

[17] = viability inhibitors of stage V gametocytes – luminescence, dose response (AID 1117278); format: functional, cell-based;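 further: gametocytes exposed to compound for 24 hours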
[18] = viability loss in human Jurkat cells – cell-based, luminescence, cytotoxicity control for P. falciparum gametocyte viability project, dose response (AID 1117277); format: functional;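 further: potency reflects loss of cellular ATP meaning fewer viable cells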
Estrogen receptor = target: T7, Estrogen receptor (Homo sapiens, UniProt P03372); experiment: ERα coactivator recruitment enhancers – biochemical, TR-FRET, ERα LBD, dose response (AID 737)
T7 sequence (P03372 whole entry): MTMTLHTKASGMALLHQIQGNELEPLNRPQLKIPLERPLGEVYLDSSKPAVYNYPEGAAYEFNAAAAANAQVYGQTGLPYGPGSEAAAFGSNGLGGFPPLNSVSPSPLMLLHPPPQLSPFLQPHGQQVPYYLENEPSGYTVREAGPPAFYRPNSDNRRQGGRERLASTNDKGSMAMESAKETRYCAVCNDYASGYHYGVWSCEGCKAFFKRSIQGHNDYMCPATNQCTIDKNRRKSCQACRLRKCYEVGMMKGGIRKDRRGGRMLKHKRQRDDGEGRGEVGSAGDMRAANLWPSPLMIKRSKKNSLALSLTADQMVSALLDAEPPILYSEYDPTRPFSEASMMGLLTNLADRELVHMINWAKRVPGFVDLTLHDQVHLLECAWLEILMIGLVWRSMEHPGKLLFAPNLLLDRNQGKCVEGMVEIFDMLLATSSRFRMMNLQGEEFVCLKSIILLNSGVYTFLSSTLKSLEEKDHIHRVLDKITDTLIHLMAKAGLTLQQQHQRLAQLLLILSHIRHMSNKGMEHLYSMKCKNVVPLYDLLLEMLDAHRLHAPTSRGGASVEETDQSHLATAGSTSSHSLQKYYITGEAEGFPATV

Estrogen receptor beta = Estrogen receptor beta (Homo sapiens, UniProt Q92731);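 further: recombinant ER-beta bound to coactivator SRC1 peptide in presence of estradiol agonist; inhibitors block coactivator peptide binding and lower the FRET signal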
Chain of Estrogen receptor beta (Q92731 whole entry): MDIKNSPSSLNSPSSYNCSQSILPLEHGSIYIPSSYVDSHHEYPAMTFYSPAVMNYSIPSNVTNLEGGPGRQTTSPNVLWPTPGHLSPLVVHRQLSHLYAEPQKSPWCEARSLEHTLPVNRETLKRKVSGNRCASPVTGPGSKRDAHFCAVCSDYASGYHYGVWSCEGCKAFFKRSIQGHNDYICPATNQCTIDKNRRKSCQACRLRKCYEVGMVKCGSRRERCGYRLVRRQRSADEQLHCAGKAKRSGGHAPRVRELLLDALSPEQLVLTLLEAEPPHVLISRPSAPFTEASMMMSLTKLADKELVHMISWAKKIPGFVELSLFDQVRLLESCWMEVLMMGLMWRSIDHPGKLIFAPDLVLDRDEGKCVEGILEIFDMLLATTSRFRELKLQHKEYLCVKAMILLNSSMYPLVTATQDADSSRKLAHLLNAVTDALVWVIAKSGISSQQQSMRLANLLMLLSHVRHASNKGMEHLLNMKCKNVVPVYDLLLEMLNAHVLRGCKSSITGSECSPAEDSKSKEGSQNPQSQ

[19] = target: Acyl-homoserine lactone acylase PvdQ (Pseudomonas aeruginosa (strain LESB58), UniProt Q9I194); experiment: PvdQ acylase enzyme activity blockers – biochemical, fluorescence, plate reader and imaging, cherry-picks, dose response (AID 493231)
Chain of Acyl-homoserine lactone acylase PvdQ (Q9I194 24-193 limits assumed): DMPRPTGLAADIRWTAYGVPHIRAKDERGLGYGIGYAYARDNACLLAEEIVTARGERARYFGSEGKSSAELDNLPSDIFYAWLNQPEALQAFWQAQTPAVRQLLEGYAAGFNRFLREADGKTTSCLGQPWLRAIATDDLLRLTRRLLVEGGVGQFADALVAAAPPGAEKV
Chain of Acyl-homoserine lactone acylase PvdQ (Q9I194 217-762 limits assumed): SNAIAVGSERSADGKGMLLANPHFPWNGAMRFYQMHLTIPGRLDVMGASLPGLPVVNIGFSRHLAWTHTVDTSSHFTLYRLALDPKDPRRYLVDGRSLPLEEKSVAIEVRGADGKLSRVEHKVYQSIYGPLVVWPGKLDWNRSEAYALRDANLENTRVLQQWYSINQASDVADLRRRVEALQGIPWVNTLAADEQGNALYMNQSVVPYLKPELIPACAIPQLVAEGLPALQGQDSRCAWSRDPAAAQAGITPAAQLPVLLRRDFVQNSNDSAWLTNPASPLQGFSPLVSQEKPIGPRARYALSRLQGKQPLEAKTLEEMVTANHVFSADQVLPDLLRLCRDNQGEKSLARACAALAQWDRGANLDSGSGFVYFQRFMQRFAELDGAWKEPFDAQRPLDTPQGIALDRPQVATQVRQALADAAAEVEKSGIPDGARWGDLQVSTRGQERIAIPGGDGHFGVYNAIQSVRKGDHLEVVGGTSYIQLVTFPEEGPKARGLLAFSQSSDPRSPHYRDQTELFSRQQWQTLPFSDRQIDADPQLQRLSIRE

[20] = tested on: Streptococcus sp. 'group A'; experiment: Streptococcus pyogenes SK(-)GAS viability under kanamycin – luminescence, BacTiterGlo, confirmation, counter-screen for streptokinase expression inhibitor project, dose response (AID 1900); format: functional, organism-based
[21] = Luminescence-based counterscreen assay for KLF5 inhibitors: dose response cell-based high throughput screening assay to identify cytotoxic compounds using the IEC-6 intestinal epithelial cell line. [Related pubchem assays: 1700 (Primary screen.), 1834 (Confirmation screen.), 1858 (Summary AID.), 1905 (Counterscreen.)]; format: functional
Streptococcus = experiment: GAS UMAA2166 growth inhibition – luminescence, BacTiterGlo, counter-screen for streptokinase expression inhibitor project, dose response (AID 1915); format: functional, organism-based;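 further: potency for reduction of bacterial viability or growth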

## COc1cccc(N2CCN(C3=C(Cl)C(=O)N(c4ccc(Cl)c(Cl)c4)C3=O)CC2)c1
Bcl-2-related protein A1 [1]
  IC50: 4.83 µM (active)
[2]
  IC50: > 100 µM (not active)
Bcl-2-related protein A1 [3]
  IC50: 1.26 µM (active)

## O=[N+]([O-])c1cc(O/N=C/c2ccccc2)cc([N+](=O)[O-])c1
NADPH oxidase 1
  IC50: > 17 µM (not active)

## Cc1cccc(CSCCNC(=O)COc2ccc(Cl)cc2)c1
[4]
  EC50: > 195 µM (not active)
[5]
  IC50: 13.3 µM (not active)

## C[C@@H]1CN(C2=C(Cl)C(=O)N(c3ccc(Cl)c(Cl)c3)C2=O)[C@@H](C)CN1
Bcl-2-related protein A1 [1]
  IC50: 8.29 µM (active)
[2]
  IC50: > 100 µM (not active)
Bcl-2-related protein A1 [3]
  IC50: 15.9 µM (active)

## C=CCn1c(SCc2c(C)noc2C)nnc1C1COc2ccccc2O1 (configuration not stated)
[6]
  IC50: 24.7 µM (active)

## Cc1ccc(-[n+]2c(-c3ccccc3)cn3c2CCc2ccccc2-3)c(C)c1
[7]
  EC50: 96.9 µM (active)
[8]
  EC50: 1.24 µM (active)
INS1
  AC50: 1.91 µM (active)
[9]
  IC50: > 80 µM (inactive)
[10]
  IC50: 3.65 µM (active)
[11]
  IC50: 5.9 µM (active)

## COc1ccc(C(=O)Nc2ccc3c(c2)OCCO3)cc1
[12]
  EC50: < 0.2 µM (active)
HT-1080
  EC50: > 50 µM (not active)

## CCOC(=O)c1ccc(NC(=O)c2ccc(C)c(S(=O)(=O)N3CCOCC3)c2)cc1
[13]
  EC50: 17.3 µM (active)
[14]
  AC50: 5.36 µM (active)

## CN(C(=O)CN1C(=O)C2C3CC(C(Br)C3Br)C2C1=O)C1CCCCC1 (configuration not stated)
[15]
  IC50: 13.4 µM (not active)
[16]
  IC50: > 43.8 µM (not active)

## COc1ccc(S(=O)(=O)N2CCN(c3ccccc3OC)CC2)cc1OC
[6]
  IC50: 23.3 µM (active)

## CCC(C)(C(=O)NC1CCCCC1)N(Cc1ccco1)C(=O)Cc1cccs1 (configuration not stated)
[10]
  IC50: 12.3 µM (not active)
[11]
  IC50: > 35 µM (not active)

## FC(F)(F)Oc1ccc(/C=N/Nc2c(Cl)cncc2Cl)cc1
NADPH oxidase 1
  IC50: > 17 µM (not active)

## COC(=O)c1c(-c2ccncc2)csc1NC(=O)c1ccoc1C
[17]
  IC50: > 109 µM (inactive)
[18]
  IC50: > 83.3 µM (inactive)
Estrogen receptor
  EC50: 23.1 µM (active)

## CCCNc1nc(N2CCOCC2)nc(N2CCOCC2)n1
Estrogen receptor beta
  IC50: > 50 µM (not active)

## COc1ccc(-c2ccc(-c3noc(-c4cccs4)n3)c(OC)n2)cc1
Estrogen receptor
  EC50: 12.9 µM (active)

## Fc1ccc(CNCc2cccc(Br)c2)cc1
[19]
  AC50: 30.2 µM (active)

## COc1cccc(/C=N/NC(=O)c2cc3c(OC)ccc(OC)c3[nH]2)c1O
[20]
  EC50: 1.23 µM (active)
[21]
  IC50: 16.3 µM (not active)
INS1
  AC50: 4.13 µM (active)
Streptococcus
  EC50: 3.31 µM (active)

## O=C1Nc2ccccc2C12OCCS2 (configuration not stated)
Estrogen receptor beta
  IC50: > 50 µM (not active)
